Experimental data published in patent US11091515B2, “Polypeptide derived from CAP1 and pharmaceutical composition comprising same as effective ingredient” (Seoul National University Hospital, priority 2017, dated 2021).
Where no end group is shown, it is not given here.

Tests used:
[1] = target: T1, binding of resistin and CAP1 (Homo sapiens, UniProt Q9HD89); assay: In vitro pull down assay of mFc-hResistin with CAP1 from THP-1 cell lysates (western blot with CAP1 antibody); conditions: for inhibition of binding of resistin and CAP1: each peptide at 50 μM, mFC-hResistin 1 μg/ml
T1 construct: host or cells: CAP1: endogenous, THP-1 cell lysate
T1 sequence (Q9HD89 19-108): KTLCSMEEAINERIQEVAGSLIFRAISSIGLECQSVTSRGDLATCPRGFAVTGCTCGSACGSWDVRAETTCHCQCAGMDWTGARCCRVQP
Procedure: THP-1 cells were lysed with lysis buffer (20 mM Tris pH 7.5, 150 mM NaCl, 1% Triton X-100, 0.25% sodium deoxycholate, 1 mM EDTA, 1 Mm NaF, 1 mM Na3VO4, and, protease inhibitor cocktail) to extract proteins. mFc-hResistin (0.5 ug) protein and VS_peptide (SEQ ID NO: 2) at 10 μM, 100 μM, and 500 μM were added to the extracted THP-1 protein (500 μg), followed by incubation at 4° C. overnight. mFC beads (20 μl) were added, and the protein complexes were pulled down at 4° C. for 3 hours, and then washed three times with lysis buffer. Then, SDS-PAGE sample buffer containing β-mercaptoethanol was added, followed by boiling at 100° C. for 5 minutes, and then a supernatant was obtained through centrifugation. It was investigated by western blotting using the hCAP1 antibody and mFc-HRP antibody whether the binding of hCAP1 and mFc-hResistin was inhibited by VS_peptide. Specifically, THP-1 cell lysates were treated with 1 μg/ml of mFC-hResistin, treated with VS_peptide (SEQ ID NO: 2) at 10 μM, 100 μM, and 500 μM each, and then pulled down using Fc beads. The proteins bound to beads were separated by SDS-PAGE, and subjected to western blotting using the CAP1 antibody. THP-1 cell lysates were treated with mFC-hResistin (1 μg/ml) and each of the peptides of SEQ ID NOS: 1 to 7 at 50 μM each, and pulled down using Fc beads. Thereafter, the proteins bound to Fc beads were separated by SDS-PAGE, and then subjected to western blotting using the CAP1 antibody.

[2] = system: NF-κB (p65 phosphorylation); assay: NF-κB activity by p65 phosphorylation western blot in resistin-treated THP-1 cells; format: cell-based, human
Procedure: To investigate the effect of VS_peptide (SEQ ID NO: 2) on NF-κB activity, p65 phosphorylation was compared between the addition of VS_peptide (SEQ ID NO: 2) and the addition of AA_peptide (SEQ ID NO: 3). THP-1 cells were treated with resistin to activate NF-κB, and VS_peptide (SEQ ID NO: 2) and AA_peptide (SEQ ID NO: 3) were added, and then western blotting using the p-p65 antibody was performed for NF-κB activity.

[3] = system: AMPK (phosphorylation of AMPK and ACC, LDLR expression); assay: AMPK activity by western blot in HepG2 cells treated with AICAR and resistin; format: cell-based; conditions: peptide 50 μM, compared with addition of only resistin
Procedure: To investigate the effect of VS_peptide (SEQ ID NO: 2) on AMPK activity, AMPK phosphorylation was compared between the addition of VS_peptide (SEQ ID NO: 2) and the addition of AA_peptide (SEQ ID NO: 3). To investigate the effect of VS_peptide (SEQ ID NO: 2) on AMPK activity, HepG2 cells were treated with AICAR to activate AMPK and treated with resistin, and the cells were treated with VS_peptide (SEQ ID NO: 2) and AA_peptide (SEQ ID NO: 3) at 50 μM each. The western blotting was performed to investigate AMPK activity in HepG2 cells through the phosphorylation of AMPK, the phosphorylation of ACC, which is a substrate of AMPK, and the expression level of LDLR.

MDA-MB-231 cells = assay: Cell migration analysis of resistin-treated breast cancer cells; format: cell-based, human; conditions: MDA-MB-231, resistin 50 ng/ml, 30 μM and 50 μM, compared with AA_peptide
Procedure: MDA-MB-231 cells were suspended in DMEM medium (0.1% FBS), and then the suspension was added at a concentration of 1×10^5 cell/ml per well to uniformly spread throughout the upper chamber of 6-well Transwell. In the lower chamber, each of 50 μM VS_peptide (SEQ ID NO: 2) and AA_peptide (SEQ ID NO: 3) was mixed with DMEM medium (0.1% FBS), and resistin was added at 100 ng/ml. Thereafter, the cells were incubated in an incubator at 37° C. in 5% CO2 for 24 hours. The cells penetrating the Transwell were stained using Crystal violet staining, and then quantified using the Image J program.
MDA-MB-231 cells were suspended in DMEM medium, and then placed in 24-well plates at a concentration of 1×10^5 cell/ml per well. After 50 ng/ml of resistin was placed in each well, VS_peptide (SEQ ID NO: 2) and AA_peptide (SEQ ID NO: 3) were placed at 30 μM and 50 μM, respectively. Thereafter, the cells were incubated in an incubator at 37° C. and 5% CO2 for 6-15 hours. Thereafter, cell migration after 6 hours and 15 hours was observed using a microscope.

[4] = target: T2, binding of resistin and CAP1 (rhCAP1, mFc-hResistin) (Homo sapiens, UniProt Q9HD89); assay: Competitive ELISA, mFc-hResistin binding to plate-coated rhCAP1
T2 sequence (Q9HD89 19-108): T1 sequence (Q9HD89 19-108)
Procedure: Each well of a 96-well plate were coated with hCAP1 protein at a concentration of 2.5 μg/ml for 12 hours (overnight) at room temperature. Each well was washed two times with phosphate buffered saline (PBS, pH7.4). Each well was blocked with a blocking buffer containing 3% BAS at room temperature for 1 hour. The blocking buffer containing 3% BSA was mixed with 5 ug/ml mFc-hResistin protein and VS_peptide [SEQ ID NO: 2] at various concentrations (10 uM, 30 uM, 100 uM), followed by pre-incubation at room temperature for 1 hour. After the blocking solution was removed from the 96-well plate, 100 μl of the pre-incubated mixture of mFc-hResistin protein and VS_peptide (SEQ ID NO: 2) was dispensed in each well, followed by incubation at room temperature for 2 hours. Upon the completion of the incubation, each well was washed two times with PBS. After the anti-mouse-Fc-HRP antibody was diluted in a blocking buffer containing 3% BSA at 1:1000, 100 μl of the diluted antibody was dispensed in each well, followed by incubation at room temperature for 1 hour. Upon the completion of the incubation, each well was washed two times with PBS. […] After 100 μl of a stop solution was dispensed in each well, and the absorbance was measured at 450 nm using an ELISA reader. […] The resistin bound to the HRP-conjugated mFc antibody was measured by ELISA at an absorbance of 450 nm.

[5] = target: T3, binding of resistin and CAP1 in THP-1 cells (Homo sapiens, UniProt Q9HD89); assay: Immunoprecipitation of resistin/CAP1 from treated THP-1 cells; format: cell-based; conditions: THP-1 cells treated with resistin and peptide for 12 hours
T3 construct: endogenous in cells; host or cells: THP-1 cells (CAP1 endogenous)
T3 sequence (Q9HD89 19-108): T1 sequence (Q9HD89 19-108)
Procedure: THP-1 cells were treated with resistin or resistin and a peptide for 12 hours, and then lysed with lysis buffer (20 mM Tris pH 7.5, 150 mM NaCl, 1% Triton X-100, 0.25% sodium deoxycholate, 1 mM EDTA, 1mM NaF, 1mM Na3VO4, and protease inhibitor cocktail). The resistin antibody or CAP1 antibody was added to the cell lysates, followed by immunoprecipitation at 4° C. for 3 hours. Mouse IgG was added for control. Protein A/G agarose beads were added to the THP-1 protein and CAP1 antibody complex, followed by incubation, and then through centrifugation, only beads were left and the supernatant was removed. Thereafter, the proteins bound to beads were separated by SDS-PAGE, and after electrophoresis, the gel was transferred onto the polyvinylidene fluoride (PVDF, Millipore), and then blocked with 5% skim milk at room temperature for 30 minutes. […] After the incubation, the membrane was sufficiently washed at least three times for 10 minutes each, and bands were detected using ECL detection kit (Invitrogen, WP20005), and then analyzed. […]

[6] = Peptide pharmacokinetics by PET imaging of radioisotope-labeled peptide; format: in vivo, mice; conditions: tail vein injection, PET images at 0-48 hours
Procedure: VS_peptide and albumin-conjugated VS_peptide were injected at 36-40 μCi per mouse into the tail vein of C57BL/6 normal mice. After the injection, PET images were acquired at intervals of 0, 1, 2, 4, 24, and 48 hours using the GENISYS[…] machine from Sofie Bioscience. After the image acquisition, pharmacokinetic data were obtained by monoexponential fitting using the image analysis program Amide.
To increase drug delivery efficiency and drug effect duration of VS_peptide (SEQ ID NO: 2), albumin was bound to the peptide. VS_peptide (SEQ ID NO: 2) and albumin-conjugated VS_peptide (SEQ ID NO: 2) were labeled with a radioisotope, and then injected at 36-40 uCi each into the tail vein of male mice aged 8 weeks. PET images were acquired at intervals of 0, 1, 2, 4, 24, and 48 hours, and kinetics of the peptide in the body were observed.

| Sequence | inhibition of binding of resistin and CAP1 [1] | p65 phosphorylation induced by resistin [2] | expression level of LDLR [3] | phosphorylation of ACC [3] | phosphorylation of AMPK [3] | further results |
| --- | --- | --- | --- | --- | --- | --- |
| PPPPGAAAAAVSTSSGSDES (Synthetic pro2A peptide) [Proline rich-2 region replaced with A] | inhibited the binding of resistin and CAP1 at similar levels to the VS_peptide |  |  |  |  |  |
| PPPPGPPPPPAATSSGSDES (Synthetic AA peptide) [AA_peptide, VS replaced with AA; used as control peptide, reference compound] | failed to inhibit | not inhibited | similar | not increased | not increased |  |
| PPPPGPPPPPVSTSSGSDES [VS_peptide] | effectively inhibited | inhibited | increased | increased | increased | amount of cell migration (MDA-MB-231 cells): smaller; OD value (450 nm) of resistin bound to CAP1 ([4]; addition of peptide vs non-addition, 10, 30, 100 uM, dose-dependent): decreased; inhibition at 100 µM ([4]; peptide at 100 μM, read-out: inhibitory effect on binding of resistin and CAP1): ~25%; binding of resistin and CAP1 in cells (bands in IP/western blot) [5]: no bands; time the administered medicine remains in the body [6]: ≤ 4 h; amount of CAP1 binding to resistin ([1]; peptide at 10, 100 and 500 μM, dose-dependent): reduced |
| AAAAGAAAAAAATSSGSDES (Synthetic AAA peptide) [Proline rich regions and VS replaced with A] | allowed the strongest binding of resistin and CAP1 |  |  |  |  |  |
| AAAAGPPPPPVSTSSGSDES (Synthetic pro1A peptide) [Proline rich-1 region replaced with A] | inhibited the binding of resistin and CAP1 at similar levels to the VS_peptide |  |  |  |  |  |
| GPPPPPVSTS (Synthetic pep10 peptide) [Shortened peptide based on VS and proline rich-1] | inhibited the binding of resistin and CAP1 at similar levels to the VS_peptide |  |  |  |  |  |
